≈ marks a conversion by molar mass, not a printed value. Entries after “also recorded” stand apart in the source; their conditions may differ.

Usually pKa stands for the pH at which an ionisable group is half protonated. One may read the LogP as a log measure of how a compound divides between an organic and an aqueous phase. The term solubility denotes the concentration that dissolves in the medium under given conditions. Usually Log P stands for the decadic logarithm of the partition coefficient of the neutral form, usually between octanol and water.

System in one data set: not given
Assay: not given
The conditions noted are these: exemplary anions, Table 5; cited from earlier work.
As to `CN(C)CCO` [2-(dimethylamino)ethanol], the pKa is listed as 9.3.

Consider `CCCCC(CC)COS(=O)(=O)[O-].[Na+]` (stereo not drawn) [2-ethylhexyl sulfate], for which the LogP is 3.10.

In the case of `CCCCCCC(O)C(=O)O` (stereo not drawn) [2-hydroxyoctanoic acid], the LogP is on record as 1.8 and the pKa is recorded as 4.42.

In the case of `CC(C)C(=O)O` [2-methylpropanoic acid], the LogP was 0.73.

For `CCC(O)CCCCCCC(=O)O` (stereo not drawn) [8-hydroxycapric acid], the LogP is given as 2.2.

In the case of `COc1cc(/C=C/C(=O)O)ccc1O` [(E)-3-(4-hydroxy-3-methoxy-phenyl)prop-2-enoic acid], the pKa is 4.42.

As to `O=C(O)CCCC[C@@H]1CCSS1` [(R)-5-(1,2-dithiolan-3-yl)pentanoic acid], the pKa was 5.10.

For the molecule `CC(C)=CCCC(C)CC(=O)O` (stereo not drawn) [Citronellic Acid, 3,7-dimethyl-6-octenoic acid], the LogP was 2.8 and the pKa is reported as 5.19.

As for `CC(C)=CCC/C(C)=C/C(=O)O` [Geranic Acid], the LogP is 2.72 and the pKa is recorded as 5.26.

With `O=C(O)CCCC(=O)O` [Glutaric Acid], the LogP is −0.29 and the pKa was 4.34.

`O=C(O)C(O)c1ccccc1` (stereo not drawn) [Hydroxyl(phenyl)acetic acid]: the log partition coefficient (LogP) is recorded as 1.2 and the pKa is 3.41.

For the molecule `O=C(O)CCCCCCCC(=O)O` [Nonanedioic Acid], the pKa is 4.55.

Consider `CCCCCCCC(=O)O` [Octanoic Acid], for which the LogP is on record as 3.01 and the pKa was 4.895.

Take `CCCCC/C=C/C(=O)O` [Octenoic Acid, trans-2-octenoic acid]: the LogP is reported as 2.9 and the pKa was 5.05.

On to `O=C(O)c1ccccc1O` [Salicylic Acid], for which the LogP is listed as 2.2.

Take Decenoic Acid: the LogP is recorded as 4.02 and the pKa is recorded as 5.03.

Turning to Hexenoic Acid, the LogP is listed as 1.8 and the pKa is recorded as 5.13.

The test system of another data set is porcine skin.
Assay: not given
Conditions: not given
For the molecule “Choline geranate [CAGE] [listing 1 of 2 here]”, the “Acarbose: Rank” value is recorded as 2, the “Average Rank” value was found to be 5 and the “Ruxolitinib: Rank” value is 8.

Consider “Choline geranate [CAGE] [listing 2 of 2 here]”, for which the “Acarbose: Rank” value is 1, the “Average Rank” value is recorded as 1, the “Ruxolitinib: Rank” value came out at 3 and the “delivery/transport of acarbose into skin (in words)” value is recorded as “highest delivery efficacy”. The “delivery/transport of ruxolitinib into skin (in words)” value is “highest delivery efficacy”.

System in another data set: not listed separately
As to the kind of experiment: Solubility of the model drugs in PBS and in CAGE variants. The conditions noted are these: PBS, aqueous buffer. The class given is physicochemical.
With `C[C@H]1O[C@H](O[C@H]2[C@H](O)[C@@H](O)[C@@H](O[C@H]3[C@H](O)[C@@H](O)C(O)O[C@@H]3CO)O[C@@H]2CO)[C@H](O)[C@@H](O)[C@@H]1N[C@H]1C=C(CO)[C@@H](O)[C@H](O)[C@H]1O` (stereo partly drawn) [Acarbose, acarbose], the solubility was no less than 1000 µg/mL.

For the molecule `N#CC[C@H](C1CCCC1)n1cc(-c2ncnc3[nH]ccc23)cn1` [ruxolitinib], the solubility was 200 µg/mL (≈ 653 µM).

System in the next data set: not given
Assay: not given
The conditions noted are these: model drugs; cited from earlier work.
As to `N#CC[C@H](C1CCCC1)n1cc(-c2ncnc3[nH]ccc23)cn1` [ruxolitinib], the “Log P” value is 2.9.

The test system of the next data set is porcine skin. As to the kind of experiment: Skin penetration studies using porcine skin in Franz diffusion cells, drug quantified by HPLC. To be noted: 24 h, listed as pure geranic acid.
Description: Skin Penetration Studies. The skin penetration studies were undertaken using porcine skin in Franz diffusion cells, as described in full previously (skin area=1.7 cm^2). […] Briefly, thawed, washed porcine skin was placed in a diffusion cell with the SC facing upwards. The acceptor component of the cell was filled with PBS and equipped with a magnetic stirrer bar. Only cells with a measured trans-epidermal current less than 12 μA were used in the study and the treatments were randomly assigned. 300 μL of drug solution in each IL (1 mg/mL) was placed on top of the skin, ensuring full coverage. The cell was placed on a stirrer plate at 37° C. for 24 hours, at which point the skin was removed and the surface was washed gently with PBS. Each skin layer was then separated. The stratum corneum was removed by tape stripping (up to ten layers), the epidermis was separated from the dermis with a scalpel, and a 4 mm punch was used thrice to remove a third of the dermis (by area).
HPLC Analysis. The analysis of the amount of drug present in each layer was determined by HPLC. […] For ruxolitinib, an Inertsil ODS C-18 column with 250×4.6 mm internal diameter and 5μm particle size was employed.
As to `CC(C)=CCC/C(C)=C/C(=O)O` [Geranic Acid], the “delivery/transport of acarbose into skin (in words)” value is given as “no significant transport; also recorded: did not yield a noticeable skin flux” and the “delivery/transport of ruxolitinib into skin (in words)” value is “no significant transport; also recorded: did not yield a noticeable skin flux”.

The values above are taken from patent US20220257767A1, “IONIC LIQUIDS FOR DRUG DELIVERY” (PRESIDENT AND FELLOWS OF HARVARD COLLEGE, priority 2019, published 2022).
